14 molecules from patent US20200060276A1, “THIAZOLE COMPOUND AND HERBICIDE” (OAT Agrio Co., Ltd., priority 2017, published 2020) can be followed below.

What all share (type): in vivo
For assay [1], the system named is Echinochloa crus-galli (L.) P. Beauv. var. formosensis Ohwi. Kind of assay: Test for Herbicidal Effect in Flooding Treatment (#1), ECHDG. Conditions: for ECHDG #1 herbicidal effect (growth inhibition grade): flooding treatment at seeding, dose 2 kg/ha, visual observation on day 21; for ECHDG #1 herbicidal effect (growth inhibition rating 0-5): flooding treatment #1. Here is the method: (§1) (#1) Test for Herbicidal Effect in Flooding Treatment: Styrol cups each having an opening diameter of 8 cm (about 52 cm^2) were respectively filled with soil (45 ml) which had been passed through a sieve (2 mm). Water (about 115 ml) was mixed with the soil such that the soil was flooded. After the soil stood still for 24 hours, Monochoria vaginalis, Echinochloa crus-galli (L.) P. Beauv. var. formosensis Ohwi, Cyperus difformis (umbrella sedge), and Scirpus juncoides were seeded. Each of the compounds of the present invention was dissolved in acetone, and the obtained product was then diluted with water containing Tween 80®. Each of the resultant chemical solutions was dropped on the entire surface of an associated one of treatment sections, so that each section was treated with 1 ml of the respective chemical solution (a dose of 2 kg/ha). After the treatment, the plants were grown in a glasshouse. On day 21, a survey was conducted on the herbicidal activity by visual observation, and evaluation was made according to the following criteria. 0: Growth inhibition effect is less than 10%. 1: Growth inhibition effect is equal to or greater than 10%, and less than 30%. 2; Growth inhibition effect is equal to or greater than 30%, and less than 50%. 3: Growth inhibition effect equal to or greater than 50%, and less than 70%. 4: Growth inhibition effect is equal to or greater than 70%, and less than 90%. 5: Growth inhibition effect is equal to or greater than 90%, or complete withering is achieved. ECHDG=Echinochloa crus-galli (L.) P. Beauv. var. formosensis Ohwi, MONVA=Monochoria vaginalis, SCIJU=Scirpus juncoides, CYMIC=Cyperus microiria.

The next assay deals with Monochoria vaginalis. Kind of assay: Test for Herbicidal Effect in Flooding Treatment (#1), MONVA. Conditions: for MONVA #1 herbicidal effect (growth inhibition grade): flooding treatment at seeding, dose 2 kg/ha, visual observation on day 21; for MONVA #1 herbicidal effect (growth inhibition rating 0-5): flooding treatment #1. Here is the method:
as §1

Another assay concerns Scirpus juncoides. Nature of the assay: Test for Herbicidal Effect in Flooding Treatment (#1), SCIJU. Conditions: for SCIJU #1 herbicidal effect (growth inhibition grade): flooding treatment at seeding, dose 2 kg/ha, visual observation on day 21; for SCIJU #1 herbicidal effect (growth inhibition rating 0-5): flooding treatment #1. Here is the method: as §1
Assay [2] relates to Echinochloa crus-galli (L.) P. Beauv. var. formosensis Ohwi. Kind of assay: Test for Herbicidal Effect in Flooding Treatment (#2), ECHDG at 2-2.5 leaf stage. Conditions: flooding treatment at 2-2.5 leaf stage, dose 0.2 kg/ha, visual observation on day 21. Here is the method: (#2) Test for Herbicidal Effect in Flooding Treatment: Styrol cups each having an opening diameter of 13 cm (about 130 cm^2) were respectively filled with muddy soil (500 ml). Water (about 300 ml) was mixed with the soil such that the soil was flooded. After the soil stood still for 24 hours, Echinochloa crus-galli (L.) P. Beauv. var. formosensis Ohwi was seeded. When the Echinochloa crus-galli (L.) P. Beauv. var. formosensis Ohwi grew to reach 2-2.5 leaf stage, chemical solutions were dropped on the entire surface of treatment sections, so that each section is treated with 1 ml of the respective chemical solution (a dose of 0.2 kg/ha). Each of the chemical solutions was prepared by dissolving associated one of the compounds of the present invention in acetone, followed by dilution with water containing Tween 80 g. After the treatment, the plants were grown in a glasshouse. On day 21, a survey was conducted on the herbicidal activity by visual observation, and evaluation was made according to the following criteria. 0: Growth inhibition effect is less than 10%. 1: Growth inhibition effect is equal to or greater than 10%, and less than 30%. 2; Growth inhibition effect is equal to or greater than 30%, and less than 50%. 3: Growth inhibition effect equal to or greater than 50%, and less than 70%. 4: Growth inhibition effect is equal to or greater than 70%, and less than 90%. 5: Growth inhibition effect is equal to or greater than 90%, or complete withering is achieved. ECHDG=Echinochloa crus-galli (L.) P. Beauv. var. formosensis Ohwi, MONVA=Monochoria vaginalis, SCIJU=Scirpus juncoides, CYMIC=Cyperus microiria. The herbicidal activity of the following comparative compounds A and B (the compounds disclosed Japanese Unexamined Patent Publication No. 2003-096059) were evaluated in a manner pursuant to Test Example 1. (#2).

Molecules are shown by their SMILES.

On to `CC(c1c(F)cccc1OCC(F)F)S(=O)(=O)c1ncc(Cl)s1` (racemic) [Compound 1C-142], for which the “ECHDG #1 herbicidal effect (growth inhibition grade)” value in assay [1] is given as 5 (Growth inhibition effect is equal to or greater than 90%, or complete withering is achieved). Besides, the “MONVA #1 herbicidal effect (growth inhibition grade)” value with Monochoria vaginalis is reported as 5 (Growth inhibition effect is equal to or greater than 90%, or complete withering is achieved). In addition, the “SCIJU #1 herbicidal effect (growth inhibition grade)” value in the assay with Scirpus juncoides is 5 (Growth inhibition effect is equal to or greater than 90%, or complete withering is achieved). For the same molecule, in assay [2], the “ECHDG (2-2.5L) #2 herbicidal effect (growth inhibition grade)” value is on record as 5 (Growth inhibition effect is equal to or greater than 90%, or complete withering is achieved).

Turning to `CC(c1c(Cl)cccc1OCCC(F)(F)F)S(=O)(=O)c1ncc(Cl)s1` (racemic) [Compound 1C-150], the “ECHDG #1 herbicidal effect (growth inhibition grade)” value in assay [1] is recorded as 5 (Growth inhibition effect is equal to or greater than 90%, or complete withering is achieved). Also, the “MONVA #1 herbicidal effect (growth inhibition grade)” value in the assay on Monochoria vaginalis is given as 5 (Growth inhibition effect is equal to or greater than 90%, or complete withering is achieved). In addition, the “SCIJU #1 herbicidal effect (growth inhibition grade)” value in the assay with Scirpus juncoides is listed as 5 (Growth inhibition effect is equal to or greater than 90%, or complete withering is achieved).

For the molecule `[O-][S+](Cc1c(F)cccc1OCC(F)F)c1ncc(Cl)s1` (stereo not shown) [Compound 1B-7], the “ECHDG #1 herbicidal effect (growth inhibition rating 0-5)” value in assay [1] is recorded as 5 (Growth inhibition effect is equal to or greater than 90%, or complete withering is achieved). The “MONVA #1 herbicidal effect (growth inhibition rating 0-5)” value in the assay with Monochoria vaginalis was 5 (Growth inhibition effect is equal to or greater than 90%, or complete withering is achieved). For the same molecule, the “SCIJU #1 herbicidal effect (growth inhibition rating 0-5)” value in the assay with Scirpus juncoides was 5 (Growth inhibition effect is equal to or greater than 90%, or complete withering is achieved).

Regarding `[O-][S+](Cc1c(Cl)cccc1OCC(F)(F)C(F)(F)F)c1ncc(Cl)s1` (stereo not shown) [Compound 1B-14], the “ECHDG #1 herbicidal effect (growth inhibition rating 0-5)” value in assay [1] is reported as 5 (Growth inhibition effect is equal to or greater than 90%, or complete withering is achieved). The “MONVA #1 herbicidal effect (growth inhibition rating 0-5)” value with Monochoria vaginalis is listed as 5 (Growth inhibition effect is equal to or greater than 90%, or complete withering is achieved). In the assay on Scirpus juncoides, the “SCIJU #1 herbicidal effect (growth inhibition rating 0-5)” value is 5 (Growth inhibition effect is equal to or greater than 90%, or complete withering is achieved).

In the case of `[O-][S+](Cc1c(OCC(F)F)cccc1OCC(F)F)c1ncc(Cl)s1` (stereo not shown) [Compound 1B-15], the “ECHDG #1 herbicidal effect (growth inhibition rating 0-5)” value in assay [1] was 3 (Growth inhibition effect equal to or greater than 50%, and less than 70%). Further, the “MONVA #1 herbicidal effect (growth inhibition rating 0-5)” value with Monochoria vaginalis is listed as 5 (Growth inhibition effect is equal to or greater than 90%, or complete withering is achieved). For the same molecule, in the assay with Scirpus juncoides, the “SCIJU #1 herbicidal effect (growth inhibition rating 0-5)” value is listed as 5 (Growth inhibition effect is equal to or greater than 90%, or complete withering is achieved).

`CCOC(=O)C(F)(F)Oc1cccc(Cl)c1CS(=O)(=O)c1ncc(Cl)s1` [Compound 1C-64]: the “ECHDG #1 herbicidal effect (growth inhibition grade)” value in assay [1] is reported as 5 (Growth inhibition effect is equal to or greater than 90%, or complete withering is achieved). Further, the “MONVA #1 herbicidal effect (growth inhibition grade)” value in the assay with Monochoria vaginalis is on record as 5 (Growth inhibition effect is equal to or greater than 90%, or complete withering is achieved). Moreover, in the assay on Scirpus juncoides, the “SCIJU #1 herbicidal effect (growth inhibition grade)” value is 5 (Growth inhibition effect is equal to or greater than 90%, or complete withering is achieved).

Regarding `O=S(=O)(Cc1c(OCC(F)F)cccc1OCC(F)F)c1ncc(Cl)s1` [Compound 1C-129], the “ECHDG #1 herbicidal effect (growth inhibition grade)” value in assay [1] is given as 5 (Growth inhibition effect is equal to or greater than 90%, or complete withering is achieved). Moreover, the “MONVA #1 herbicidal effect (growth inhibition grade)” value in the assay on Monochoria vaginalis was 5 (Growth inhibition effect is equal to or greater than 90%, or complete withering is achieved). Besides, in the assay with Scirpus juncoides, the “SCIJU #1 herbicidal effect (growth inhibition grade)” value is 4 (Growth inhibition effect is equal to or greater than 70%, and less than 90%).

`CCOc1ccc(Cl)cc1C(F)(F)S(=O)(=O)c1nc(F)c(Cl)s1` [Compound 1C-139]: the “MONVA #1 herbicidal effect (growth inhibition grade)” value in the assay with Monochoria vaginalis is on record as 5 (Growth inhibition effect is equal to or greater than 90%, or complete withering is achieved). Further, the “SCIJU #1 herbicidal effect (growth inhibition grade)” value in the assay with Scirpus juncoides is on record as 5 (Growth inhibition effect is equal to or greater than 90%, or complete withering is achieved). Also, the “ECHDG (2-2.5L) #2 herbicidal effect (growth inhibition grade)” value in assay [2] was 1 (Growth inhibition effect is equal to or greater than 10%, and less than 30%).

Consider `COc1ccc(Cl)c(CS(=O)(=O)c2ncc(C(F)(F)F)s2)c1F` [Compound 1C-167], for which the “ECHDG #1 herbicidal effect (growth inhibition grade)” value in assay [1] is listed as 5 (Growth inhibition effect is equal to or greater than 90%, or complete withering is achieved). The “MONVA #1 herbicidal effect (growth inhibition grade)” value in the assay with Monochoria vaginalis is listed as 5 (Growth inhibition effect is equal to or greater than 90%, or complete withering is achieved). In addition, the “SCIJU #1 herbicidal effect (growth inhibition grade)” value with Scirpus juncoides is 5 (Growth inhibition effect is equal to or greater than 90%, or complete withering is achieved).

As to `CS(=O)(=O)c1ccc(CS(=O)(=O)c2ncc(Cl)s2)cc1` [Compound 1C-168], the “ECHDG #1 herbicidal effect (growth inhibition grade)” value in assay [1] is listed as 5 (Growth inhibition effect is equal to or greater than 90%, or complete withering is achieved). Also, in the assay with Monochoria vaginalis, the “MONVA #1 herbicidal effect (growth inhibition grade)” value was 5 (Growth inhibition effect is equal to or greater than 90%, or complete withering is achieved). For the same molecule, the “SCIJU #1 herbicidal effect (growth inhibition grade)” value with Scirpus juncoides was 5 (Growth inhibition effect is equal to or greater than 90%, or complete withering is achieved).

`C#CCN(C)c1cccc(F)c1CS(=O)(=O)c1ncc(Cl)s1` [Compound 1C-169]: the “ECHDG #1 herbicidal effect (growth inhibition grade)” value in assay [1] is 5 (Growth inhibition effect is equal to or greater than 90%, or complete withering is achieved). Besides, the “MONVA #1 herbicidal effect (growth inhibition grade)” value in the assay on Monochoria vaginalis is 5 (Growth inhibition effect is equal to or greater than 90%, or complete withering is achieved). In addition, the “SCIJU #1 herbicidal effect (growth inhibition grade)” value in the assay on Scirpus juncoides is listed as 5 (Growth inhibition effect is equal to or greater than 90%, or complete withering is achieved).

`O=S(=O)(Cc1c(Cl)ccc(OC(F)F)c1F)c1ncc(Cl)s1` [Compound 1C-180]: the “ECHDG #1 herbicidal effect (growth inhibition grade)” value in assay [1] is 5 (Growth inhibition effect is equal to or greater than 90%, or complete withering is achieved). Also, the “SCIJU #1 herbicidal effect (growth inhibition grade)” value in the assay with Scirpus juncoides is 5 (Growth inhibition effect is equal to or greater than 90%, or complete withering is achieved). In assay [2], the “ECHDG (2-2.5L) #2 herbicidal effect (growth inhibition grade)” value was 5 (Growth inhibition effect is equal to or greater than 90%, or complete withering is achieved).

Consider `O=C(O)COc1cccc(F)c1CS(=O)(=O)c1ncc(Cl)s1` [Compound 1C-183], for which, in assay [1], the “ECHDG #1 herbicidal effect (growth inhibition grade)” value is listed as 5 (Growth inhibition effect is equal to or greater than 90%, or complete withering is achieved). In addition, the “SCIJU #1 herbicidal effect (growth inhibition grade)” value in the assay with Scirpus juncoides is on record as 5 (Growth inhibition effect is equal to or greater than 90%, or complete withering is achieved). In addition, the “ECHDG (2-2.5L) #2 herbicidal effect (growth inhibition grade)” value in assay [2] was 3 (Growth inhibition effect equal to or greater than 50%, and less than 70%).

For the molecule `O=S(=O)(Cc1c(F)cccc1OS(=O)(=O)C(F)(F)F)c1ncc(Cl)s1` [Compound 1C-185], in assay [1], the “ECHDG #1 herbicidal effect (growth inhibition grade)” value was 5 (Growth inhibition effect is equal to or greater than 90%, or complete withering is achieved). Also, in the assay with Scirpus juncoides, the “SCIJU #1 herbicidal effect (growth inhibition grade)” value is 5 (Growth inhibition effect is equal to or greater than 90%, or complete withering is achieved). The “ECHDG (2-2.5L) #2 herbicidal effect (growth inhibition grade)” value in assay [2] is recorded as 5 (Growth inhibition effect is equal to or greater than 90%, or complete withering is achieved).
